In ChEMBL document CHEMBL3091428, “Synthesis and initial biological evaluation of substituted 1-phenylamino-2-thio-4,5-dimethyl-1H-imidazole derivatives” (Bioorg Med Chem Lett, 2013):
Converted amounts (≈) assume the structure as drawn.

How the values were obtained:
Pichia kudriavzevii = test: Antimicrobial activity against Candida krusei ATCC 6258 after 24 hrs by broth microdilution method; type: functional; details: ATCC 6258, 24 h
Klebsiella pneumoniae = test: Antimicrobial activity against Klebsiella pneumoniae ATCC 13883 after 24 hrs by broth microdilution method; type: functional; details: ATCC 13883, 24 h
[1] = Toxicity in brine shrimp larvae assessed as mortality after 24 hrs; type: organism-based; details: artemia salina, in vivo
Artemia salina [2] = test: Toxicity in brine shrimp larvae assessed as mortality at 1600 ug/ml after 24 hrs; type: organism-based; details: in vivo
Listeria monocytogenes = test: Antimicrobial activity against Listeria monocytogenes ATCC 19115 after 24 hrs by broth microdilution method; type: functional; details: ATCC 19115, 24 h
Escherichia coli [3] = test: Antimicrobial activity against Escherichia coli ATCC 35218 after 24 hrs by broth microdilution method; type: functional; details: ATCC 35218, 24 h
Pseudomonas aeruginosa = test: Antimicrobial activity against Pseudomonas aeruginosa ATCC 27853 after 24 hrs by broth microdilution method; type: functional; details: ATCC 27853, 24 h
Escherichia coli [4] = test: Antimicrobial activity against Escherichia coli ATCC 25922 after 24 hrs by broth microdilution method; type: functional; details: ATCC 25922, 24 h
Artemia salina [5] = test: Toxicity in brine shrimp larvae assessed as mortality at 400 ug/ml after 24 hrs; type: organism-based; details: in vivo
Enterococcus faecalis [6] = test: Antimicrobial activity against Enterococcus faecalis ATCC 51299 after 24 hrs by broth microdilution method; type: functional; details: ATCC 51299, 24 h
Artemia salina [7] = test: Toxicity in brine shrimp larvae assessed as mortality at 800 ug/ml after 24 hrs; type: organism-based; details: in vivo
Enterococcus faecalis [8] = test: Antimicrobial activity against Enterococcus faecalis ATCC 29212 after 24 hrs by broth microdilution method; type: functional; details: ATCC 29212, 24 h
Nakaseomyces glabratus = test: Antimicrobial activity against Candida glabrata ATCC 90030 after 24 hrs by broth microdilution method; type: functional; details: ATCC 90030, 24 h
Candida albicans = test: Antimicrobial activity against Candida albicans ATCC 90028 after 24 hrs by broth microdilution method; type: functional; details: ATCC 90028, 24 h
Staphylococcus aureus = test: Antimicrobial activity against Staphylococcus aureus ATCC 25923 after 24 hrs by broth microdilution method; type: functional; details: ATCC 25923, 24 h
Artemia salina [9] = test: Toxicity in brine shrimp larvae assessed as mortality at 100 ug/ml after 24 hrs; type: organism-based; details: in vivo
Artemia salina [10] = test: Toxicity in brine shrimp larvae assessed as mortality at 200 ug/ml after 24 hrs; type: organism-based; details: in vivo
Artemia salina [11] = test: Toxicity in brine shrimp larvae assessed as mortality at 50 ug/ml after 24 hrs; type: organism-based; details: in vivo

Compound	MIC (Pichia kudriavzevii)	MIC (Klebsiella pneumoniae)	LC50 at 24 h [1]	Activity (Artemia salina [2])	MIC (Listeria monocytogenes)	MIC (Escherichia coli [3])	MIC (Pseudomonas aeruginosa)	MIC (Escherichia coli [4])	Activity (Artemia salina [5])	MIC (Enterococcus faecalis [6])	Activity (Artemia salina [7])	MIC (Enterococcus faecalis [8])	MIC (Nakaseomyces glabratus)	MIC (Candida albicans)	MIC (Staphylococcus aureus)	Activity (Artemia salina [9])	Activity (Artemia salina [10])	Activity (Artemia salina [11])
COc1ccc(C(=O)CSc2nc(C)c(C)n2Nc2ccc(C)cc2)cc1	25 µg/mL (≈ 65.5 µM)	400 µg/mL (≈ 1050 µM)	153 µg/mL (≈ 400 µM)	Toxic	50 µg/mL (≈ 131 µM)	400 µg/mL (≈ 1050 µM)	400 µg/mL (≈ 1050 µM)	100 µg/mL (≈ 262 µM)	Toxic	400 µg/mL (≈ 1050 µM)	Toxic	25 µg/mL (≈ 65.5 µM)	100 µg/mL (≈ 262 µM)	25 µg/mL (≈ 65.5 µM)	400 µg/mL (≈ 1050 µM)	–	–	–
COc1ccc(C(=O)CSc2nc(C)c(C)n2Nc2ccc(C)cc2)cc1OC	50 µg/mL (≈ 121 µM)	400 µg/mL (≈ 972 µM)	1310 µg/mL (≈ 3180 µM)	–	50 µg/mL (≈ 121 µM)	200 µg/mL (≈ 486 µM)	400 µg/mL (≈ 972 µM)	200 µg/mL (≈ 486 µM)	–	400 µg/mL (≈ 972 µM)	–	100 µg/mL (≈ 243 µM)	100 µg/mL (≈ 243 µM)	100 µg/mL (≈ 243 µM)	400 µg/mL (≈ 972 µM)	Non-toxic	Non-toxic	Non-toxic
Cc1nc(SCC(=O)c2ccc(F)c(F)c2)n(Nc2ccccc2)c1C	200 µg/mL (≈ 536 µM)	400 µg/mL (≈ 1070 µM)	465 µg/mL (≈ 1250 µM)	–	50 µg/mL (≈ 134 µM)	400 µg/mL (≈ 1070 µM)	400 µg/mL (≈ 1070 µM)	400 µg/mL (≈ 1070 µM)	–	400 µg/mL (≈ 1070 µM)	–	25 µg/mL (≈ 66.9 µM)	400 µg/mL (≈ 1070 µM)	400 µg/mL (≈ 1070 µM)	100 µg/mL (≈ 268 µM)	–	–	–
COc1ccc(Nn2c(SCC(=O)c3cccc(Cl)c3)nc(C)c2C)cc1	400 µg/mL (≈ 995 µM)	800 µg/mL (≈ 1990 µM)	–	–	800 µg/mL (≈ 1990 µM)	800 µg/mL (≈ 1990 µM)	800 µg/mL (≈ 1990 µM)	800 µg/mL (≈ 1990 µM)	–	800 µg/mL (≈ 1990 µM)	–	800 µg/mL (≈ 1990 µM)	800 µg/mL (≈ 1990 µM)	800 µg/mL (≈ 1990 µM)	800 µg/mL (≈ 1990 µM)	–	–	–
Cc1nc(SCC(=O)c2ccc(F)c(F)c2)n(Nc2ccc(Cl)cc2)c1C	100 µg/mL (≈ 245 µM)	400 µg/mL (≈ 981 µM)	359 µg/mL (≈ 881 µM)	Toxic	50 µg/mL (≈ 123 µM)	800 µg/mL (≈ 1960 µM)	400 µg/mL (≈ 981 µM)	400 µg/mL (≈ 981 µM)	–	400 µg/mL (≈ 981 µM)	Toxic	50 µg/mL (≈ 123 µM)	100 µg/mL (≈ 245 µM)	50 µg/mL (≈ 123 µM)	400 µg/mL (≈ 981 µM)	Non-toxic	–	Non-toxic
COc1ccc(Nn2c(SCC(=O)c3ccc(F)cc3)nc(C)c2C)cc1	400 µg/mL (≈ 1040 µM)	800 µg/mL (≈ 2080 µM)	–	–	400 µg/mL (≈ 1040 µM)	800 µg/mL (≈ 2080 µM)	800 µg/mL (≈ 2080 µM)	800 µg/mL (≈ 2080 µM)	–	800 µg/mL (≈ 2080 µM)	–	1600 µg/mL (≈ 4150 µM)	400 µg/mL (≈ 1040 µM)	400 µg/mL (≈ 1040 µM)	800 µg/mL (≈ 2080 µM)	–	–	–
Cc1nc(SCC(=O)c2cccc(Cl)c2)n(Nc2ccccc2)c1C	200 µg/mL (≈ 538 µM)	800 µg/mL (≈ 2150 µM)	–	–	400 µg/mL (≈ 1080 µM)	400 µg/mL (≈ 1080 µM)	400 µg/mL (≈ 1080 µM)	400 µg/mL (≈ 1080 µM)	–	400 µg/mL (≈ 1080 µM)	–	400 µg/mL (≈ 1080 µM)	400 µg/mL (≈ 1080 µM)	800 µg/mL (≈ 2150 µM)	400 µg/mL (≈ 1080 µM)	–	–	–
COc1ccc(Nn2c(SCC(=O)c3ccc(Cl)c(Cl)c3)nc(C)c2C)cc1	800 µg/mL (≈ 1830 µM)	800 µg/mL (≈ 1830 µM)	–	–	800 µg/mL (≈ 1830 µM)	800 µg/mL (≈ 1830 µM)	400 µg/mL (≈ 917 µM)	400 µg/mL (≈ 917 µM)	–	800 µg/mL (≈ 1830 µM)	–	400 µg/mL (≈ 917 µM)	800 µg/mL (≈ 1830 µM)	800 µg/mL (≈ 1830 µM)	800 µg/mL (≈ 1830 µM)	–	–	–
Cc1nc(SCC(=O)c2cccc(F)c2)n(Nc2ccc(Cl)cc2)c1C	400 µg/mL (≈ 1030 µM)	800 µg/mL (≈ 2050 µM)	–	–	200 µg/mL (≈ 513 µM)	800 µg/mL (≈ 2050 µM)	400 µg/mL (≈ 1030 µM)	400 µg/mL (≈ 1030 µM)	–	800 µg/mL (≈ 2050 µM)	–	100 µg/mL (≈ 256 µM)	400 µg/mL (≈ 1030 µM)	400 µg/mL (≈ 1030 µM)	800 µg/mL (≈ 2050 µM)	–	–	–
Cc1nc(SCC(=O)c2cccc(Cl)c2)n(Nc2ccc(Cl)cc2)c1C	800 µg/mL (≈ 1970 µM)	800 µg/mL (≈ 1970 µM)	–	–	800 µg/mL (≈ 1970 µM)	800 µg/mL (≈ 1970 µM)	400 µg/mL (≈ 984 µM)	800 µg/mL (≈ 1970 µM)	–	800 µg/mL (≈ 1970 µM)	–	400 µg/mL (≈ 984 µM)	400 µg/mL (≈ 984 µM)	800 µg/mL (≈ 1970 µM)	800 µg/mL (≈ 1970 µM)	–	–	–
Cc1ccc(Nn2c(SCC(=O)c3ccccc3)nc(C)c2C)cc1	400 µg/mL (≈ 1140 µM)	400 µg/mL (≈ 1140 µM)	–	–	800 µg/mL (≈ 2280 µM)	200 µg/mL (≈ 569 µM)	800 µg/mL (≈ 2280 µM)	800 µg/mL (≈ 2280 µM)	–	800 µg/mL (≈ 2280 µM)	–	400 µg/mL (≈ 1140 µM)	400 µg/mL (≈ 1140 µM)	800 µg/mL (≈ 2280 µM)	800 µg/mL (≈ 2280 µM)	–	–	–
